US12428405B2, “Chalcone-based chemotherapeutic compound for triple negative breast cancer” (QATAR UNIVERSITY, priority 2019, dated 2025)
Entries after “also recorded” stand apart in the source; their conditions may differ.

Experiments:
[1] = system: Chorioallantoic membrane (CAM) of the chicken embryos; assay: Chorioallantoic membrane (CAM) angiogenesis assay; assay type: in vivo; settings: treated at embryonic day 4, read at day 8; 2 μl of 5 mM stock under coverslip
Method: Fertilized white Leghorn chicken embryos (Arab Qatari for Poultry Production, Qatar) were purchased and incubated at 60% humidity at 37° C. in MultiQuip incubator. Ethics approval was obtained from Qatar University-Institutional Bio-safety committee. The embryos were treated in ovo at embryonic day 4 with three of the synthesized chalcones (5, 13 and 14) compared to DMSO treated controls. Briefly, a small cut was made at the top of the shells of the eggs and each treatment was added under a round coverslip at 2 μl of 5 mM stock solutions. Microscopic pictures were taken at embryonic day 8. Embryos treated with compounds 13 and 14 were sacrificed at embryonic day 9 for clinical observations. Quantification of blood vessels was performed manually and the different treatment groups were compared.

MDA-MB-468 [2] = assay: Soft agar colony formation assay; assay type: cell-based; settings: for less colonies as compared to untreated: 5 and 10 μM, 14 days post treatment
MCF-7 [3] = assay: Matrigel invasion assay; assay type: cell-based; settings: 24 hours; 13 (10 μM), 14 (5 μM)
Method: (§1) Matrigel-coated invasion chamber plates (CORNING, USA) were used to study the invasive property of MDA-MB-231, MDA-MB-468 and MCF-7 cancer cells. Cells were seeded at a concentration of 5×10^4 cells/0.5 ml in each upper chamber well and maintained in RPMI serum free medium. Complete RPMI medium with 10% FBS was added to each base well at 600 μl/well to act as an attractant to the cells in the upper chamber. After 24 hours, cells were fixed using a 3.70% formaldehyde as a fixator for 5 minutes. […] Thereafter, cells were stained using 5% crystal violet dissolved in ethanol and were incubated for 5 minutes followed by several rounds of washing with PBS. Cells were then visualized under the microscope and 4 pictures/well were taken from different zones. ImageJ software was used to quantify the number of invaded cells in each well.

MDA-MB-468 [4] = assay: Matrigel invasion assay; assay type: cell-based; settings: 24 hours; 13 (10 μM), 14 (5 μM)
Method: as §1

MDA-MB-231 [5] = assay: Matrigel invasion assay; assay type: cell-based; settings: 24 hours; 13 (10 μM), 14 (5 μM)
Method: as §1

MCF-7 [6] = assay: Morphological examination; assay type: cell-based; settings: 10 μM; 48 hours
Method: (§2) MCF-7, MDA-MB-231, MDA-MB-468 and HNME-E6/E7 cells were seeded in a 6-well plates at a concentration of 200,000-300,000 cells/well and were incubated overnight. After incubation, cells were treated with different compounds.

MDA-MB-468 [7] = assay: Morphological examination; assay type: cell-based; settings: 10 μM; 24 hours
Method: as §2

MDA-MB-231 [8] = assay: Morphological examination; assay type: cell-based; settings: 10 μM
Method: as §2

MCF-7 [9] = assay: Cell cycle analysis (flow cytometry); assay type: cell-based; settings: 48 h; 10 μM of compound 13, 5 μM of compound 14
Method: The MDA-MB-231, MDA-MB-468 and MCF-7 cell lines were seeded on 6-well plates at a concentration of 200,000 cells per well and were maintained in culture supplemented with 10% fetal bovine serum for 8-10 hours. The same day, media was removed and cells were incubated overnight with serum free media. Second day, cells were treated with the compounds. Adherent and floating cell populations were harvested at 48 hours after treatment with different concentrations of the compounds and counted.
Afterward, cells were washed with cold PBS once, centrifuged at 4° C. and fixed with 1.5 ml cold 70% ethanol added drop wise while slowly vortexing. Samples were then stored at […] Following fixation, cells were pelleted and washed with ice-cold PBS. Equal aliquots were collected and resuspended in 300 μl of Tali® Cell Cycle Kit and incubated at 37 C. with slow shaking speed for 30 minutes in the dark. Accuri C6 flow cytometer (BD Biosciences, USA) was used to analyze the cells. The FlowJo V10 software was used to process and evaluate the results.

MCF-7 [10] = assay: Soft agar colony formation assay; assay type: cell-based; settings: for less colonies as compared to untreated: 5 and 10 μM, 14 days post treatment; for colony formation (in words): MCF-7, soft agar
HNME-E6/E7 = assay: Morphological examination of normal cells; assay type: cell-based, human; settings: 5 μM; 48 hours
Method: as §2

[11] = system: TNBC (MDA-MB-231 and MDA-MB-231) and estrogen positive (MCF-7 and BT-474) cell lines; assay: MTT cell viability, breast cancer cell line panel (summary statements); assay type: cell-based
Excerpt: (§3) Breast cancer cell lines including MDA-MB-231, MDA-MB-468, MCF-7, BT-474 and SK-BR-3 were obtained from the American Type Tissue Culture (ATCC) and maintained in complete cell culture media Gibco® RPMI 1640 (Thermo Fisher Scientific, USA) supplemented with 10% fetal bovine serum (PAN-Biotech, Aidenbach, Bavaria, Germany) and 1% penicillin/streptomycin (1×) antibiotics (Thermo Fisher Scientific, USA). Human normal mammary epithelial cells immortalized by E6/E7 of HPV type 16 (HNME-E6/E7) were used to predict potential safety of the compounds (125, 126). They were maintained in Gibco® Keratinocyte-SFM (1×) media. All cells were incubated in 5% CO2 at 37° C. incubator. Cells were maintained by routine sub-culturing in T-75 and T25 filtered tissue culture flasks.
MDA-MB-231, MDA-MB-468, MCF-7, BT-474 and HNME-E6/E7 cells were seeded overnight in 96-well plates at a concentration of 8000-10,000/well depending on their pre-calculated cell density and were incubated overnight. At 24 hours, media was replaced with fresh one. The treatment wells included 6-8 different concentrations of the compounds ranging between 0.25 μM-160 μM. […] Absorbance was recorded at a wavelength of 562 nm after 3 minutes of shaking using Infinite 200 PRO Microplate Reader (Tecan, Switzerland). Percentage of viable cells was calculated using the following formula: […]

MCF-7 [12] = assay: MTT cell viability; assay type: cell-based; settings: for IC50: Homo sapiens, MCF7, 48 hours of treatment, Mean ± SEM (n = 3 × 3); for SI of HNME/MCF-7 (selective index): ratio of LD50 on HNME-E6/E7 to IC50 on MCF-7
Excerpt: as §3
(§4) MDA-MB-231, MDA-MB-468, MCF-7, BT-474 and HNME-E6/E7 cells were seeded overnight in 96-well plates at a concentration of 8000-10,000/well depending on their pre-calculated cell density and were incubated overnight. At 24 hours, media was replaced with fresh one. The treatment wells included 6-8 different concentrations of the compounds ranging between 0.25 μM-160 μM. At 48 hours post treatment, 10 μL MTT solution was added to each well followed by 4 hours of incubation. Afterwards, media with MTT was removed from all wells and 50 μl DMSO was added to each well to dissolve the crystals. This was followed by 5 minutes incubation. Absorbance was recorded at a wavelength of 562 nm after 3 minutes of shaking using Infinite 200 PRO Microplate Reader (Tecan, Switzerland). Percentage of viable cells was calculated using the following formula: […]

MDA-MB-468 [13] = assay: MTT cell viability; assay type: cell-based; settings: for IC50: Homo sapiens, MDA-MB-468, 48 hours of treatment, Mean ± SEM (n = 3 × 3); for SI of HNME/MDA-468 (selective index): ratio of LD50 on HNME-E6/E7 to IC50 on MDA-MB-468
Excerpt: as §3, §4

MDA-MB-231 [14] = assay: MTT cell viability; assay type: cell-based; settings: for IC50: Homo sapiens, MDA-MB-231, 48 hours of treatment, Mean ± SEM (n = 3 × 3); for SI of HNME/MDA-231 (selective index): ratio of LD50 on HNME-E6/E7 to IC50 on MDA-MB-231
Excerpt: as §3, §4

| SMILES | inhibition of blood vessels development vs control [1] [%] | less colonies as compared to untreated (MDA-MB-468 [2]) [%] | reduction of cancer cells invasion vs DMSO control (MCF-7 [3]) [%] | reduction of cancer cells invasion vs DMSO control (MDA-MB-468 [4]) [%] | reduction of cancer cells invasion vs DMSO control (MDA-MB-231 [5]) [%] | cell morphology (MCF-7 [6]) | cell morphology (MDA-MB-468 [7]) | cell morphology (MDA-MB-231 [8]; 24 hours) | cell morphology (MDA-MB-231 [8]; 48 hours) | cell cycle arrest (in words) (MCF-7 [9]) | less colonies as compared to untreated (MCF-7 [10]) [%] | colony formation (in words) (MCF-7 [10]) | cell morphology of normal cells (HNME-E6/E7) | IC50 (MCF-7 [12]) [µM] | SI of HNME/MCF-7 (selective index) (MCF-7 [12]) | IC50 (MDA-MB-468 [13]) [µM] | SI of HNME/MDA-468 (selective index) (MDA-MB-468 [13]) | IC50 (MDA-MB-231 [14]) [µM] | SI of HNME/MDA-231 (selective index) (MDA-MB-231 [14]) | further results |
| --- | --- | --- | --- | --- | --- | --- | --- | --- | --- | --- | --- | --- | --- | --- | --- | --- | --- | --- | --- | --- |
| CS(=O)(=O)c1ccc(C(=O)/C=C/c2ccc(N(CCCl)CCCl)cc2)cc1 [Compound 13, (E)-3-(4-(Bis(2-chloroethyl)amino)phenyl)-1-(4-(methylsulfonyl)phenyl) prop-2-en-1-one] | 55.6±6.04 | ~100 | 45.70 | 48.45 | 79.57 | triggered cells to become larger in shape | obvious change in cell shape | look more spherical in shape and to lose their mesenchymal fibroblastic property | Mainly single circular cells were obvious | mainly noticed in the invasive cell lines but not in the noninvasive, MCF-7, cells | ~100 | better effects on MCF-7 as compared to colchicine | induced morphological changes | 8.95 ± 1.46 | 3.61 | 9.29 ± 0.68 | 3.48 | 9.67 ± 0.68 | 3.34 | selectivity, approximately similar between different breast cancer cell lines ([11]; versus HNME-E6/E7 normal cells): ~3 |
| COc1cccc(C(=O)/C=C/c2ccc(N(CCCl)CCCl)cc2)c1 [Compound 14, (E)-3-(4-(Bis(2-chloroethyl)amino)phenyl)-1-(3-methoxyphenyl) prop-2-en-1-one] | 60.20±8.47 | ~100 | 57.26 | 59.28 | 82.54 | induced cell shrinkage | obvious change in cell shape | did not induce a significant difference | change in cell shape | mainly noticed in the invasive cell lines but not in the noninvasive, MCF-7, cells | ~100 | completely inhibited; also recorded: better effects on MCF-7 as compared to colchicine | induced morphological changes | 3.96 ± 1.87 | 5.22 | 8.73 ± 0.67 | 2.36 | 6.3 ± 0.78 | 3.2 | colony formation (in words) (MDA-MB-468 [2]; MDA-MB-468, soft agar): completely inhibited; IC50 ([11]; TNBC and estrogen positive cell lines, read-out: anti-proliferative IC50 values, range over cell lines): 3.94 to 9.22 µM |
